The subject of experiment [1] is KB. Description: Cytotoxicity against human KB cells after 3 days by MTT assay. The format is functional, cell-based. (Tetrazolium dyes change colour on reduction, which living cells bring about.)
The subject of experiment [2] is HepG2. As to the kind of experiment: Cytotoxicity against human HepG2 cells after 3 days by MTT assay. The format is functional, cell-based.
In experiment [3] the test system is SK-LU-1. As to the kind of experiment: Cytotoxicity against human SK-LU-1 cells after 3 days by MTT assay. The format is functional, cell-based.
For experiment [4], the system named is KB. Description: Potency index, ratio of erlotinib IC50 to compound IC50 for human KB cells. The experiment is classed as functional.
Experiment [5] has as its system HepG2. Description: Potency index, ratio of erlotinib IC50 to compound IC50 for human HepG2 cells. The experiment is classed as functional.
For experiment [6], the system named is SK-LU-1. Description: Potency index, ratio of erlotinib IC50 to compound IC50 for human SK-LU-1 cells. The format is functional.
For experiment [7], the system named is KB. As to the kind of experiment: Potency index, ratio of erlotinib hydrochloride IC50 to compound IC50 for human KB cells. The experiment is classed as functional.
For experiment [8], the system named is HepG2. Description: Potency index, ratio of erlotinib hydrochloride IC50 to compound IC50 for human HepG2 cells. The format is functional.
Experiment [9] has as its system SK-LU-1. Description: Potency index, ratio of erlotinib hydrochloride IC50 to compound IC50 for human SK-LU-1 cells. The format is functional.

One may read the IC50 as the concentration needed to halve the response being measured.

Counter-ions that a name gives are not always drawn. Some results are limits rather than exact numbers.

For the compound `O=[N+]([O-])c1ccccc1-n1cc(-c2cccc(Nc3ncnc4cc5c(cc34)OCCCO5)c2)nn1`, the IC50 in experiment [1] (Homo sapiens, KB, 72 h) amounted to 20.4 µM; in experiment [2] (Homo sapiens, HepG2, 72 h), 43.4 µM; in experiment [3] (Homo sapiens, SK-LU-1, 72 h), 14.8 µM. Besides, the “Ratio IC50” value in [4], in experiment [5], in [6], in [7], in experiment [8] and in experiment [9] was “<=100” each time.
As to `O=[N+]([O-])c1cccc(-n2cc(-c3cccc(Nc4ncnc5cc6c(cc45)OCCCO6)c3)nn2)c1`, the IC50 in experiment [1] (Homo sapiens, KB, 72 h) was found to be 53.2 µM; in [2] (Homo sapiens, HepG2, 72 h), 76.8 µM; in [3] (Homo sapiens, SK-LU-1, 72 h) it was 230 µM.
The corresponding values for `O=[N+]([O-])c1ccccc1-n1cc(-c2cccc(Nc3ncnc4cc5c(cc34)OCO5)c2)nn1` are 193 µM, 207 µM and 217 µM.
On to `O=[N+]([O-])c1ccccc1-n1cc(-c2cccc(Nc3ncnc4ccccc34)c2)nn1`, for which the IC50 in [1] (Homo sapiens, KB, 72 h) came out at 5.5 µM; in [2] (Homo sapiens, HepG2, 72 h), 4.64 µM; in experiment [3] (Homo sapiens, SK-LU-1, 72 h), 4.76 µM. Further, the “Ratio IC50” value in [4], in experiment [5], in experiment [6], in experiment [7], in experiment [8] and in [9] was “<=100” in each case.
`C#Cc1cccc(Nc2ncnc3cc4c(cc23)OCCO4)c1`: the IC50 in [1] (Homo sapiens, KB, 72 h) is 2.6 µM; in experiment [2] (Homo sapiens, HepG2, 72 h), 2.84 µM; in experiment [3] (Homo sapiens, SK-LU-1, 72 h), 3.36 µM. In addition, the “Ratio IC50” value in [4], in experiment [5], in [6], in experiment [7], in [8] and in [9] was “<=100” throughout.
`C#Cc1cccc(Nc2ncnc3cc4c(cc23)OCCCO4)c1`: the IC50 in experiment [1] (Homo sapiens, KB, 72 h) stood at 54.8 µM; in experiment [2] (Homo sapiens, HepG2, 72 h), 69.9 µM; in experiment [3] (Homo sapiens, SK-LU-1, 72 h), 80.7 µM.
As to `N#Cc1cc(-n2cc(-c3cccc(Nc4ncnc5ccccc45)c3)nn2)ccc1C(F)(F)F`, the IC50 in experiment [1] (Homo sapiens, KB, 72 h) was 1.46 µM; in experiment [2] (Homo sapiens, HepG2, 72 h) it was 1.86 µM; in experiment [3] (Homo sapiens, SK-LU-1, 72 h), 4.5 µM. Further, the “Ratio IC50” value in experiment [4], in experiment [5], in experiment [6], in experiment [7], in experiment [8] and in experiment [9] was “<=100” throughout.
In the case of `N#Cc1cc(-n2cc(-c3cccc(Nc4ncnc5cc6c(cc45)OCO6)c3)nn2)ccc1C(F)(F)F`, the IC50 in experiment [1] (Homo sapiens, KB, 72 h) was found to be 4.59 µM; in experiment [2] (Homo sapiens, HepG2, 72 h), 6.1 µM; in experiment [3] (Homo sapiens, SK-LU-1, 72 h), 27.5 µM. Moreover, the “Ratio IC50” value in experiment [4], in [5], in experiment [6], in experiment [7], in experiment [8] and in [9] was “<=100” in each case.
Take `O=[N+]([O-])c1cccc(-n2cc(-c3cccc(Nc4ncnc5ccccc45)c3)nn2)c1`: the IC50 in experiment [1] (Homo sapiens, KB, 72 h) came out at 104 µM; in experiment [2] (Homo sapiens, HepG2, 72 h) it was 287 µM; in experiment [3] (Homo sapiens, SK-LU-1, 72 h), 260 µM.
For the compound `C#Cc1cccc(Nc2ncnc3cc4c(cc23)OCO4)c1`, the IC50 in experiment [1] (Homo sapiens, KB, 72 h) stood at 75.6 µM; in [2] (Homo sapiens, HepG2, 72 h) it was 26.2 µM; in [3] (Homo sapiens, SK-LU-1, 72 h), 64.9 µM.
Regarding `N#Cc1cc(-n2cc(-c3cccc(Nc4ncnc5cc6c(cc45)OCCCO6)c3)nn2)ccc1C(F)(F)F`, the 50% inhibitory concentration (IC50) in experiment [1] (Homo sapiens, KB, 72 h) is 1.49 µM; in [2] (Homo sapiens, HepG2, 72 h) it was 1.61 µM; in [3] (Homo sapiens, SK-LU-1, 72 h), 1.81 µM. For the same compound, the “Ratio IC50” value in experiment [4], in experiment [5], in [6], in experiment [7], in experiment [8] and in experiment [9] was “<=100” each time.
Consider `O=[N+]([O-])c1ccc(-n2cc(-c3cccc(Nc4ncnc5ccccc45)c3)nn2)cc1`, for which the IC50 in [1] (Homo sapiens, KB, 72 h) came to 5.47 µM; in experiment [2] (Homo sapiens, HepG2, 72 h), 8.11 µM; in experiment [3] (Homo sapiens, SK-LU-1, 72 h), 9.16 µM. Moreover, the “Ratio IC50” value in experiment [4], in [5], in experiment [6], in experiment [7], in experiment [8] and in experiment [9] was “<=100” each time.
For `O=[N+]([O-])c1ccc(-n2cc(-c3cccc(Nc4ncnc5cc6c(cc45)OCO6)c3)nn2)cc1`, the half-maximal inhibitory concentration (IC50) in experiment [1] (Homo sapiens, KB, 72 h) was 30.1 µM; in experiment [2] (Homo sapiens, HepG2, 72 h) it was 11.3 µM; in experiment [3] (Homo sapiens, SK-LU-1, 72 h) it was 44.5 µM.
In the same order, the values of `O=[N+]([O-])c1ccc(-n2cc(-c3cccc(Nc4ncnc5cc6c(cc45)OCCO6)c3)nn2)cc1` are 79.1 µM, 230 µM and 54.8 µM.
For `C#Cc1cccc(Nc2ncnc3ccccc23)c1`, the IC50 in experiment [1] (Homo sapiens, KB, 72 h) was found to be 5.46 µM; in experiment [2] (Homo sapiens, HepG2, 72 h) it was 4.16 µM; in experiment [3] (Homo sapiens, SK-LU-1, 72 h), 4.16 µM. Moreover, the “Ratio IC50” value in [4], in experiment [5], in [6], in experiment [7], in experiment [8] and in [9] was “<=100” each time.
On to `O=[N+]([O-])c1cccc(-n2cc(-c3cccc(Nc4ncnc5cc6c(cc45)OCCO6)c3)nn2)c1`, for which the IC50 in experiment [1] (Homo sapiens, KB, 72 h) came to 3.51 µM; in experiment [2] (Homo sapiens, HepG2, 72 h) it was 0.88 µM; in experiment [3] (Homo sapiens, SK-LU-1, 72 h), 5.67 µM. Further, the “Ratio IC50” value in experiment [4], in experiment [5], in experiment [6], in experiment [7], in [8] and in experiment [9] was “<=100” in each case.
`O=[N+]([O-])c1ccccc1-n1cc(-c2cccc(Nc3ncnc4cc5c(cc34)OCCO5)c2)nn1`: the IC50 was determined as 0.04 µM in experiment [1] (Homo sapiens, KB, 72 h); 0.14 µM in experiment [2] (Homo sapiens, HepG2, 72 h); 1.03 µM in experiment [3] (Homo sapiens, SK-LU-1, 72 h). The “Ratio IC50” value in experiment [4], in experiment [5], in [6], in experiment [7], in experiment [8] and in experiment [9] was “<=100” in each case.
Regarding `N#Cc1cc(-n2cc(-c3cccc(Nc4ncnc5cc6c(cc45)OCCO6)c3)nn2)ccc1C(F)(F)F`, the IC50 in [1] (Homo sapiens, KB, 72 h) was 0.27 µM; in experiment [2] (Homo sapiens, HepG2, 72 h), 6.09 µM; in experiment [3] (Homo sapiens, SK-LU-1, 72 h), 4.44 µM. Also, the “Ratio IC50” value in experiment [4], in experiment [5], in experiment [6], in experiment [7], in [8] and in [9] was “<=100” throughout.
Consider `O=[N+]([O-])c1cccc(-n2cc(-c3cccc(Nc4ncnc5cc6c(cc45)OCO6)c3)nn2)c1`, for which the IC50 in experiment [1] (Homo sapiens, KB, 72 h) turned out to be 6.35 µM; in experiment [2] (Homo sapiens, HepG2, 72 h), 6.88 µM; in experiment [3] (Homo sapiens, SK-LU-1, 72 h), 6.66 µM. For the same compound, the “Ratio IC50” value in [4], in experiment [5], in [6], in [7], in experiment [8] and in [9] was “<=100” each time.
For `Cc1c2ccncc2c(C)c2c1[nH]c1ccccc12` [ELLIPTECINE], the IC50 in experiment [1] (Homo sapiens, KB, 72 h) worked out at 1.95 µM; in experiment [2] (Homo sapiens, HepG2, 72 h) it was 2.72 µM; in experiment [3] (Homo sapiens, SK-LU-1, 72 h), 1.38 µM.
Take `C#Cc1cccc(Nc2ncnc3cc(OCCOC)c(OCCOC)cc23)c1` [ERLOTINIB HYDROCHLORIDE]: the results for the IC50 in experiment [1] (kb), in experiment [2] (hepg2) and in [3] (sk-lu-1) were 49.6 µM, 14.2 µM and 31.2 µM, respectively.
`C#Cc1cccc(Nc2ncnc3cc(OCCOC)c(OCCOC)cc23)c1` [ERLOTINIB]: the results for the IC50 in experiment [1] (kb) and in experiment [3] (sk-lu-1) were 13 µM and 99.8 µM, respectively.

Values taken from ChEMBL document CHEMBL4325840, “Design, synthesis and evaluation of novel hybrids between 4-anilinoquinazolines and substituted triazoles as potent cytotoxic agents” (Bioorg Med Chem Lett, 2018).
